Measured values: patent publication US8338599B2, “Compounds having a potentiating effect on the activity of ethionamide and uses thereof” (priority 2006, dated 2012)
In brackets after ≈: the same amount, converted by molar mass. Read-outs that look alike come from different tables or passages of the source.

Key:
EthR protein [1] = target: T1, EthR protein (Mycobacterium tuberculosis, UniProt P9WMC1); test: Inhibition of interaction of EthR with its target DNA sequence (BIAcore); assay type: binding, M. tuberculosis H37Rv; details: compound 3 μM, EthR 540 nM, 37° C.
T1 sequence (P9WMC1 whole entry, looked up): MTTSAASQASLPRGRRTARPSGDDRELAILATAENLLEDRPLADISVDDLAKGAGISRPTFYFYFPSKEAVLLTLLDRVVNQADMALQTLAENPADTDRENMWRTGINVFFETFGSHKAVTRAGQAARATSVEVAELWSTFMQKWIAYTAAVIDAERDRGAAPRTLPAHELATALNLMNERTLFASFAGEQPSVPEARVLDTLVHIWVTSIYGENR
Description: a) Measurement of the Activity of the Compounds on the Inhibition of Interaction of EthR with its Target DNA Sequence
The in vitro measurements of inhibition of binding of the EthR protein to its target DNA sequence were performed on a machine of BIAcore®2000 type (AB, Uppsala, Sweden).
The chips used are CM5 chips sold by the company GE Healthcare. Both the channels of a chip were activated with a solution containing 200 mM of EDC(N-ethyl-N′-(3-[…])carbodiimide) and 50 mM of NHS (N-hydroxysuccinimide). Next, streptavidin (500 ng/μl in a solution containing 10 mM of sodium acetate (pH 3.5) was injected over 12 minutes at a flow rate of 10 μl/minute. The 106-base-pair biotinylated DNA fragment corresponding to the ethA-R intergene region was deposited on one of the two channels of the chip at a rate of 200 ng/ml in order to obtain stable binding of streptavidin corresponding to 50 RU (resonance units). This DNA fragment was obtained by PCR using the chromosomal DNA of M. tuberculosis H37Rv as matrix and O-270: 5′-[…]-3′ (SEQ ID: No. 1) and O-271: 5′-biotin-[…]-3′ (SEQ ID: No. 2). The second channel was functionalized with a 113-base-pair biotinylated DNA fragment (fragment +14 to +127 of the bla gene of E. coli PCR-amplified using the following oligonucleotides: O-343: 5′-[…]-3′ (SEQ ID: No. 3) and O-344: 5′-biotin-[…]-3′ (SEQ ID: No. 4).
Measurement of the binding of the EthR protein to the immobilized DNA was performed at 37° C. in a reference buffer containing 10 mM of Tris-HCl (pH=7.5), 200 mM of NaCl, 0.1 mM of EDTA, 1 mM of DTT and 1% of DMSO at a flow rate of 20 μl/minute. The specific interaction (SI) of EthR with the 106-base-pair double-stranded DNA sequence, expressed in resonance units, corresponds to the difference in signal observed between the two channels.
For each inhibition measurement, the compounds of the invention are dissolved in the reference buffer at a concentration of 3 μM. The compounds of the invention are then incubated in the presence of the protein (540 nM) at 37° C. for 5 minutes, and each solution is then injected onto the two channels of the chip for 3 minutes at a flow rate of 20 μl/minute. The inhibition values are calculated at the end of the injection according to the following equation: […]
in which SIEthR corresponds to the value measured without ligand and SIEthR+ligand corresponds to the value measured in the presence of to ligand.

M. bovis BCG = assay type: cell-based, M. bovis BCG 1173P2; details: from MIC of ETH alone (6 μM) and MIC of ETH with 25 μM compound
[2] = Measurement of the solubility (PBS pH 7.4 vs methanol, LC/MS); assay type: physicochemical; details: pH 7.4, aqueous buffer, kinetic from dmso stock
Description: e) Measurement of the Solubility of the Compounds of the Invention
40 μl of a solution containing a compound of the invention at a concentration of 10 mM in DMSO were diluted in 1.960 ml of methanol, and another 40 μl were diluted in 1.960 ml of a PBS solution containing 675 mM of NaCl, 13.5 mM of KCl, 50 mM of Na2HPO4.2H2O and 10 mM of KH2PO4 at a pH of 7.4. The two solutions were stirred for 24 hours at room temperature, and then centrifuged for 5 minutes and filtered through 0.45 μm filters. 20 μl of each solution were then diluted in 118 μl of methanol and analyzed by liquid chromatography coupled to mass spectrometry (LC/MS). The solubility was determined by the ratio of the areas under the curve of the mass signal for the compound of the invention, according to the following equation: […]

EthR protein [3] = target: T1, EthR protein; test: In vitro measurement of the IC50 (EthR/DNA binding, BIAcore); parameters: species or system M. tuberculosis H37Rv
Description: b) In Vitro Measurement of the IC50 of the Compounds of the Invention.
The in vitro measurement of this datum was performed according to the same principle as for the measurement of inhibition of the EthR/DNA binding using the BIAcore technique.
The specific interaction between EthR and the specific 106-bp DNA fragment was measured on a range of six concentrations of the compounds of the invention, this range extending from 0.11 μM to 27 μM. The IC50 values are then extrapolated from the sigmoid curves obtained.

[4] = six concentrations from 0.11 μM to 27 μM, read-out: IC50

Compound | inhibition at 3 µM (EthR protein [1]) | Potentiation % (M. bovis BCG) | solubility at 24 h [2] | IC50 (EthR protein [3]; [4]) | IC50 (EthR protein [3])
[N-]=[N+]=NCC(=O)N1CCC(c2nc(-c3ccsc3)no2)CC1 [Compound 3, 2-azido-1-[4-(3-thiophen-3-yl[1,2,4]oxadiazol-5-yl)piperid-1-yl]ethanone] | 14% | 500% | – | – | –
[N-]=[N+]=NCC(=O)N1CCC(c2nc(-c3ccccc3)no2)CC1 [Compound 4, 2-azido-1-[4-(3-phenyl[1,2,4]oxadiazol-5-yl)piperid-1-yl]ethanone] | 15% | 500% | – | – | –
[N-]=[N+]=NCC(=O)N1CCC(c2nc(-c3ccc(F)cc3)no2)CC1 [Compound 5, 2-azido-1-{4-[3-(4-fluorophenyl)[1,2,4]oxadiazol-5-yl]piperid-1-yl}ethanone] | 15% | – | 0.009 mg/mL (≈ 27.2 µM) | – | –
[N-]=[N+]=NCC(=O)N1CCC(c2nc(-c3ccc4c(c3)OCO4)no2)CC1 [Compound 12, 2-azido-1-[4-(3-benzo[1,3]dioxol-5-yl[1,2,4]oxadiazol-5-yl)piperid-1-yl]ethanone] | 19% | – | 0.071 mg/mL (≈ 199 µM) | – | –
COc1ccc2nc(-c3noc(C4CCN(C(=O)CN=[N+]=[N-])CC4)n3)sc2c1 [Compound 15] | 94% | – | – | 1.56 µM | –
CC(=O)N1CCC(c2nc(-c3cccs3)no2)CC1 [Compound 17, 1-[4-(3-thiophen-2-yl[1,2,4]oxadiazol-5-yl)piperid-1-yl]ethanone] | – | – | 0.0555 mg/mL (≈ 200 µM) | – | –
C#CCCC(=O)N1CCC(c2nc(-c3cccs3)no2)CC1 [Compound 21, 1-[4-(3-thiophen-2-yl[1,2,4]oxadiazol-5-yl)piperid-1-yl]pent-4-yn-1-one] | 20% | 500% | – | – | –
CC(C)CCC(=O)N1CCC(c2nc(-c3cccs3)no2)CC1 [Compound 25, 4-methyl-1-[4-(3-thiophen-2-yl[1,2,4]oxadiazol-5-yl)piperid-1-yl]pentan-1-one] | 70% | 500% | – | 0.91 µM | –
O=C(CCC(F)(F)F)N1CCC(c2nc(-c3cccs3)no2)CC1 [Compound 27, 4,4,4-trifluoro-1-[4-(3-thiophen-2-yl[1,2,4]oxadiazol-5-yl)piperid-1-yl]butan-1-one] | 96% | 500% | – | 1.57 µM | –
COCC(=O)N1CCC(c2nc(-c3cccs3)no2)CC1 [Compound 28, 2-methoxy-1-[4-(3-thiophen-2-yl[1,2,4]oxadiazol-5-yl)piperid-1-yl]ethanone] | – | – | 0.0615 mg/mL (≈ 200 µM) | – | –
O=C(O)CCC(=O)N1CCC(c2nc(-c3cccs3)no2)CC1 [Compound 31, 4-oxo-4-[4-(3-thiophen-2-yl[1,2,4]oxadiazol-5-yl)piperid-1-yl]butyric acid] | – | – | 0.0671 mg/mL (≈ 200 µM) | – | –
O=C(CCC1CCCC1)N1CCC(c2nc(-c3cccs3)no2)CC1 [Compound 34, 3-cyclopentyl-1-[4-(3-thiophen-2-yl[1,2,4]oxadiazol-5-yl)piperid-1-yl]propan-1-one] | 48% | – | – | – | –
O=C(CC1CCCC1)N1CCC(c2nc(-c3cccs3)no2)CC1 [Compound 35, 2-cyclopentyl-1-[4-(3-thiophen-2-yl[1,2,4]oxadiazol-5-yl)piperid-1-yl]ethanone] | 52% | 2500% | – | 1.49 µM | –
O=C(CC1C=CCC1)N1CCC(c2nc(-c3cccs3)no2)CC1 (centres unmarked) [Compound 36, 2-cyclopent-2-enyl-1-[4-(3-thiophen-2-yl[1,2,4]oxadiazol-5-yl)piperid-1-yl]-ethanone] | 78% | 500% | – | 1 µM | –
O=C(CC1CCCCC1)N1CCC(c2nc(-c3cccs3)no2)CC1 [Compound 37, 2-cyclohexyl-1-[4-(3-thiophen-2-yl[1,2,4]oxadiazol-5-yl)piperid-1-yl]ethanone] | 76% | – | – | 3.49 µM | –
O=C(CC1CC2CCC1C2)N1CCC(c2nc(-c3cccs3)no2)CC1 (centres unmarked) [Compound 40, 2-bicyclo[2.2.1]hept-2-yl-1-[4-(3-thiophen-2-yl[1,2,4]oxadiazol-5-yl)piperid-1-yl]ethanone] | 59% | – | – | – | –
O=C(Cc1ccccc1)N1CCC(c2nc(-c3cccs3)no2)CC1 [Compound 41, 2-phenyl-1-[4-(3-thiophen-2-yl[1,2,4]oxadiazol-5-yl)piperid-1-yl]ethanone] | 45% | – | – | – | –
O=C(COc1ccccc1)N1CCC(c2nc(-c3cccs3)no2)CC1 [Compound 45, 2-phenoxy-1-[4-(3-thiophen-2-yl[1,2,4]oxadiazol-5-yl)piperid-1-yl]ethanone] | 75% | 2500% | – | 1.5 µM | –
O=C(Nc1ccccc1)N1CCC(c2nc(-c3cccs3)no2)CC1 [Compound 48, 4-(3-thiophen-2-yl[1,2,4]oxadiazol-5-yl)piperidine-1-carboxylic acid phenylamide] | 56% | – | 0.00086 mg/mL (≈ 2.43 µM) | – | 1.14 µM
S=C(Nc1ccccc1)N1CCC(c2nc(-c3cccs3)no2)CC1 [Compound 49, 4-(3-thiophen-2-yl[1,2,4]oxadiazol-5-yl)piperidine-1-carbothioic acid phenylamide] | 86% | – | – | 1.34 µM | –
O=C(NC1CC1)N1CCC(c2nc(-c3cccs3)no2)CC1 [Compound 51, 4-(3-thiophen-2-yl[1,2,4]oxadiazol-5-yl)piperidine-1-carboxylic acid cyclopropylamide] | 13% | – | 0.272 mg/mL (≈ 853 µM) | – | –
S=C(NC1CC1)N1CCC(c2nc(-c3cccs3)no2)CC1 [Compound 52, 4-(3-thiophen-2-yl[1,2,4]oxadiazol-5-yl)piperidine-1-carbothioic acid cyclopropylamide] | 61% | – | – | – | –
O=S(=O)(Cc1ccccc1)N1CCC(c2nc(-c3cccs3)no2)CC1 [Compound 53, 1-phenylmethanesulfonyl-4-(3-thiophen-2-yl[1,2,4]oxadiazol-5-yl)piperidine] | 34% | – | – | – | –
O=C(c1ccccc1)N1CCC(c2nc(-c3cccs3)no2)CC1 [Compound 54, phenyl[4-(3-thiophen-2-yl[1,2,4]oxadiazol-5-yl)piperid-1-yl]methanone] | 5% | – | 0.0387 mg/mL (≈ 114 µM) | – | –
O=C(CC1CC1)N1CCC(c2nc(-c3cccc(N(Cc4ccccc4)Cc4ccccc4)c3)no2)CC1 [Compound 57, 2-cyclopropyl-1-{4-[3-(3-dibenzylaminophenyl)[1,2,4]oxadiazol-5-yl]piperid-1-yl}ethanone] | 46% | – | – | – | –
O=C(Cc1cccs1)N1CCC(c2nc(-c3ccc(Br)s3)no2)CC1 [Compound 58, 1-{4-[3-(5-bromothiophen-2-yl)[1,2,4]oxadiazol-5-yl]piperid-1-yl}-2-thiophen-2-ylethanone] | 34% | – | – | – | –
N#CCC(=O)N1CCC(c2nc(-c3ccc(Br)s3)no2)CC1 [Compound 59, 3-{4-[3-(5-bromothiophen-2-yl)[1,2,4]oxadiazol-5-yl]piperid-1-yl}-3-oxo-propionitrile] | 77% | – | – | 0.39 µM | –
